Key:
[1] = Compound (I) forced degradation study, solutions exposed to light at room temperature; type: physicochemical
Method: (§1) The Compound (I), Compound (I) formyl hydrazide, and total impurities contents were determined using High Performance Liquid Chromatography HPLC. 10 μL sample was injected into a mobile phase comprising water/acetonitrile/formic acid in the ratios 900:100:2 (Eluent A)/400:600:2 (Eluent B), as defined by the gradient program in Table 1 below. Separation of impurities was performed using a column 15 cm long×4.6 mm internal diameter packed with Waters Symmetry C8 stationary phase having 3.5 μm particle size. […] “ND” in Tables 2 and 3 refers to “not determined”

[2] = Compound (I) forced degradation study, aqueous buffer solutions protected from light; type: physicochemical; settings: for Compound (I) formyl hydrazide, % w/w (24 hours) / Compound (I) hydrazide, % w/w (24 hours) / Compound (I), % w/w (24 hours) / Compound (I), % w/w (initial) / Compound (I) formyl hydrazide, % w/w (initial): protected from light; for Compound (I), % w/w (initial): 0.5 mg/mL
Method: as §1

With `COc1nc(C)cnc1NS(=O)(=O)c1cccnc1-c1ccc(-c2nnco2)cc1` [Compound (I), N-(3-methoxy-5-methylpyrazin-2-yl)-2-(4-[1,3,4-oxadiazol-2-yl]phenyl)pyridine-3-sulphonamide] the “Compound (I) formyl hydrazide, % w/w (24 hours)” value ([1]; pH 1.2, 24 hours) was 16.35 % w/w, the “Compound (I) hydrazide, % w/w (24 hours)” value ([1]; pH 1.2, 24 hours) was “ND/0.32 % w/w” and the “Compound (I), % w/w (24 hours)” value ([1]; pH 1.2, 24 hours) was 82.33 % w/w. The “Compound (I) formyl hydrazide, % w/w (initial)” value ([1]; pH 1.2, initial) was 1.39 % w/w, the “Compound (I), % w/w (initial)” value ([1]; pH 1.2, initial) was 98.82 % w/w and the “Compound (I) formyl hydrazide, % w/w (24 hours)” value ([1]; pH 3.0, 24 hours) was 0.30 % w/w. The “Compound (I), % w/w (24 hours)” value ([1]; pH 3.0, 24 hours) was 95.76 % w/w, the “Compound (I) formyl hydrazide, % w/w (initial)” value ([1]; pH 3.0, initial) was 0.05 % w/w and the “Compound (I), % w/w (initial)” value ([1]; pH 3.0, initial) was 99.39 % w/w. The “Compound (I), % w/w (24 hours)” value ([1]; pH 7.2, 24 hours) was 97.04 % w/w, the “Compound (I), % w/w (initial)” value ([1]; pH 7.2, initial) was 98.78 % w/w and the “Compound (I) formyl hydrazide, % w/w (24 hours)” value ([1]; pH 11.0, 24 hours) was 0.15 % w/w. For the same molecule, the “Compound (I), % w/w (24 hours)” value ([1]; pH 11.0, 24 hours) was 98.66 % w/w, the “Compound (I) formyl hydrazide, % w/w (initial)” value ([1]; pH 11.0, initial) was under 0.05 % w/w and the “Compound (I), % w/w (initial)” value ([1]; pH 11.0, initial) was 99.91 % w/w. The “hydrolytic degradation (in words)” value ([2]; low and high pH) was “subject to hydrolytic degradation at low and high pH”, the “Compound (I) formyl hydrazide, % w/w (24 hours)” value ([2]; pH 1.2, 37° C.) was 32.16 % w/w and the “Compound (I) hydrazide, % w/w (24 hours)” value ([2]; pH 1.2, 37° C.) was 47.34 % w/w. The “Compound (I), % w/w (24 hours)” value ([2]; pH 1.2, 37° C.) was 0.89 % w/w, the “Compound (I), % w/w (initial)” value ([2]; pH 1.2, 37° C.) was 96.69/ % w/w and the “Compound (I) formyl hydrazide, % w/w (initial)” value ([2]; pH 1.2, 37° C.) was 1.58/ % w/w. The “Compound (I) formyl hydrazide, % w/w (24 hours)” value ([2]; pH 1.2, RT) was 59.83 % w/w, the “Compound (I) hydrazide, % w/w (24 hours)” value ([2]; pH 1.2, RT) was 13.87 % w/w and the “Compound (I), % w/w (24 hours)” value ([2]; pH 1.2, RT) was 23.04 % w/w. The “Compound (I), % w/w (initial)” value ([2]; pH 1.2, RT) was 97.57/ % w/w, the “Compound (I) formyl hydrazide, % w/w (initial)” value ([2]; pH 1.2, RT) was 1.99/ % w/w and the “Compound (I) formyl hydrazide, % w/w (24 hours)” value ([2]; pH 3.0, 37° C.) was 3.09 % w/w. For the same molecule, the “Compound (I), % w/w (24 hours)” value ([2]; pH 3.0, 37° C.) was 96.56 % w/w, the “Compound (I), % w/w (initial)” value ([2]; pH 3.0, 37° C.) was 99.43/ % w/w and the “Compound (I) formyl hydrazide, % w/w (24 hours)” value ([2]; pH 3.0, RT) was 1.66 % w/w. For the same molecule, the “Compound (I) hydrazide, % w/w (24 hours)” value ([2]; pH 3.0, RT) was under 0.05 % w/w, the “Compound (I), % w/w (24 hours)” value ([2]; pH 3.0, RT) was 84.70 % w/w and the “Compound (I), % w/w (initial)” value ([2]; pH 3.0, RT) was 99.45/ % w/w. For the same molecule, the “Compound (I) hydrazide, % w/w (24 hours)” value ([2]; pH 7.2, 37° C.) was under 0.05 % w/w, the “Compound (I), % w/w (24 hours)” value ([2]; pH 7.2, 37° C.) was 99.17 % w/w and the “Compound (I), % w/w (initial)” value ([2]; pH 7.2, 37° C.) was 98.73/ % w/w. For the same molecule, the “Compound (I) hydrazide, % w/w (24 hours)” value ([2]; pH 7.2, RT) was under 0.05 % w/w, the “Compound (I), % w/w (24 hours)” value ([2]; pH 7.2, RT) was 99.45 % w/w and the “Compound (I), % w/w (initial)” value ([2]; pH 7.2, RT) was 99.14/ % w/w. For the same molecule, the “Compound (I) formyl hydrazide, % w/w (24 hours)” value ([2]; pH 11.0, 37° C.) was 4.16 % w/w, the “Compound (I) hydrazide, % w/w (24 hours)” value ([2]; pH 11.0, 37° C.) was under 0.05 % w/w and the “Compound (I), % w/w (24 hours)” value ([2]; pH 11.0, 37° C.) was 94.50 % w/w. For the same molecule, the “Compound (I), % w/w (initial)” value ([2]; pH 11.0, 37° C.) was 99.17/ % w/w, the “Compound (I) formyl hydrazide, % w/w (24 hours)” value ([2]; pH 11.0, RT) was 1.35 % w/w and the “Compound (I), % w/w (24 hours)” value ([2]; pH 11.0, RT) was 94.21 % w/w. The “Compound (I), % w/w (initial)” value ([2]; pH 11.0, RT) was 98.68/ % w/w and the “Compound (I) formyl hydrazide, % w/w (initial)” value ([2]; pH 11.0, RT) was 0.07/ % w/w.

Source: patent publication US8168221B2, “Composition 064” (AstraZeneca AB, priority 2007, dated 2012)
